Results on one compound are retold here after patent US7084117B2, “Pharmaceutical compositions which inhibit vascular proliferation and method of use thereof” (Societe de Conseils de Recherches et d'Applications …, priority 2001, dated 2006).

Molecules are shown by their SMILES.

Assay [1] deals with human placental vessel explants (capillaries sprouts). The assay can be described thus: In vitro cultures of human placental vessels, sprouting index by image analysis. It is filed as cell-based. Conditions: 10^−6 M, treated every two days for 28 days. The protocol:
The experimental procedure described by Brown et al., (Laboratory Investigation 1996, 75: 539–555) was followed and modified in the present study. Immediately after the spontaneous delivery, the placenta was collected in sterile conditions and superficial blood vessels, approximately […] in diameter and from 1 to 5 cm in length, were excised. Vessel explants were placed in phosphate buffered saline (PBS) solution containing […] of amphotericin B and 50 μg/mL of gentamycin and were cut into approximately 1-mm fragments. […]
The image analysis procedures described by Bocci et al., (Cancer Chemotherapy Pharmacology 1999, 43: 205–212), were adopted for the present study. […] The true color image analysis software package KS 300 v.1.2 (Kontron Elektronik GmbH, Eching, Germany) was run for interactive manipulation, quantification of the images and data collection. […] In the fibrin culture of placental vessel explants the mean gray level of the sprouting area was measured and the sprouting index (SI) was defined as: Sprouting index=((sprouting area/mean gray level of sprouting area)/perimeter of explant)×100. Results are expressed as the percentage of sprouting index+/−S.E. versus controls.

Assay [2] deals with immortalized human microvascular endothelial HMEC-1 cells. The assay can be described thus: Cytotoxicity assay (cell proliferation). It is filed as cell-based. The conditions noted are these: 10^−6 M (+VEGF 10 ng/mL), 72 hours. The protocol:
The immortalized human microvascular endothelial cell line HMEC-1, characterized by Ades, et al., (Journal of Investigative Dermatology 1992, 99: 683–690), was maintained in Medium 199, supplemented with 10% heat-inactivated fetal bovine serum (FBS), penicillin (50 IU/mL) and hydrocortisone (100 μg/mL). Cells were routinely grown in 75 cm2 gelatin-coated tissue culture flasks and kept in a humidified atmosphere of 5% CO2 at 37° C. Cells were harvested with a solution of 0.25% trypsin-0.03% EDTA when they were in long phase of growth and maintained at the above-described culture conditions for all experiments.
In vitro chemosensitivity testing was performed on single-cell suspensions of HEMC-1 cells (5×10^3 cells/well) plated in 96-well gelatin-coated sterile plastic plates and allowed to attach overnight. […] The treatments were scheduled so that each peptide was represented by at least nine wells. At the end of the experiment, cells were rinsed with phosphate buffered saline (PBS), harvested with trypsin/EDTA, and counted with an hemocytometer. Results are expressed as the percentage of cell proliferation versus controls and are the mean of three separate experiments±S.E repeated thrice.

`Cc1cc(C)c(/C=C2\C(=O)Nc3ccccc32)[nH]1` [SU5416, 3-((2,4-dimethylpyrrol-5-yl)methylidenyl)-2-indolinone]: in assay [1], the “sprouting index (SI) as compared to untreated controls” value was 32.92±9.7%. In addition, the cell growth block in assay [2] was determined as 56.2%.
